Key:
Caspase-1 = target: T1, Caspase-1 (Homo sapiens, UniProt P29466); parameters: species or system Escherichia coli;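 note: Caspase-1 enzyme inhibition assay with a peptide substrate; in other assays of this panel Not Active means under 50% inhibition at 10 µM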
T1 sequence (P29466 whole entry): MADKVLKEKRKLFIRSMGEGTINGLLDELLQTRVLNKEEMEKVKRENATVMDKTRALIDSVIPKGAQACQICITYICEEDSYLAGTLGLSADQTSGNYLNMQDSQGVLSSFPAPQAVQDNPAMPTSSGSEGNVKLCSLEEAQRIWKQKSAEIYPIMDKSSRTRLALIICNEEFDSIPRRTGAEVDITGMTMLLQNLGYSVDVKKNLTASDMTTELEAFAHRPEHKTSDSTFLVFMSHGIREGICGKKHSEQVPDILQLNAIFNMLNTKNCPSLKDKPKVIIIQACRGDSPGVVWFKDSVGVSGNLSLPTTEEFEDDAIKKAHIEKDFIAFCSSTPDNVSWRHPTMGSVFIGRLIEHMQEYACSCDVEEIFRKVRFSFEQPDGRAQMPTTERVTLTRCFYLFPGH

Cytochrome P450 2A6 = target: T2, Cytochrome P450 2A6 (Homo sapiens, UniProt P11509); conditions: bti-tn-5b1-4; note: in other assays of this panel Not Active means under 50% inhibition at 10 µM
T2 sequence (P11509 whole entry): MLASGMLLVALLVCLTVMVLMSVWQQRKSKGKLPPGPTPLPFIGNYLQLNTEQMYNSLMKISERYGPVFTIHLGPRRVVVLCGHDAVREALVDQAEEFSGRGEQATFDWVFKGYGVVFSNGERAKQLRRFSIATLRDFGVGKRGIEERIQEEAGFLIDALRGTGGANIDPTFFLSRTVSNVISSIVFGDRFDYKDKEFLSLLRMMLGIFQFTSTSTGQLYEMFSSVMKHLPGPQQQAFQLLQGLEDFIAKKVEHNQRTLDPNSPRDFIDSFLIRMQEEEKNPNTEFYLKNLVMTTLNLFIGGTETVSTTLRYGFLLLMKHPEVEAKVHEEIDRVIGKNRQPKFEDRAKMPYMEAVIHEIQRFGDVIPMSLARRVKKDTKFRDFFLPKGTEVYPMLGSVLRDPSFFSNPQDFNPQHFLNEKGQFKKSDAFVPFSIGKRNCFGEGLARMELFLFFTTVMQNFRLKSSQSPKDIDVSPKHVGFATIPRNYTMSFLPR

D(1A) dopamine receptor = D(1A) dopamine receptor (Homo sapiens, UniProt P21728); assay: DRUGMATRIX: Dopamine D1 radioligand binding (ligand: [3H] SCH-23390); assay type: cell membranes, CHO, Membrane; conditions: Not Active = under 50% inhibition at 10 µM
[1] = target: Prostaglandin G/H synthase 1 (Homo sapiens, UniProt P23219); assay: biochemical; assay type: tissue-based, Platelet; conditions: platelet;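 note: inhibition of COX-1 enzyme activity, with arachidonic acid supplied as substrate; in other assays of this panel Not Active means under 50% inhibition at 10 µM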
[2] = target: C-C chemokine receptor type 5 (Homo sapiens, UniProt P51681); assay type: cell membranes, Membrane; conditions: hek293; note: in other assays of this panel Not Active means under 50% inhibition at 10 µM
[3] = target: Kappa-type opioid receptor (Homo sapiens, UniProt P41145); assay: DRUGMATRIX: Opiate kappa (OP2, KOP) radioligand binding (ligand: [3H] Diprenorphine); assay type: cell membranes, HEK293, Membrane; conditions: hek293; Not Active = under 50% inhibition at 10 µM
Cytochrome P450 1A2 = target: T3, Cytochrome P450 1A2 (Homo sapiens, UniProt P05177); conditions: bti-tn-5b1-4; note: in other assays of this panel Not Active means under 50% inhibition at 10 µM
T3 sequence (P05177 whole entry): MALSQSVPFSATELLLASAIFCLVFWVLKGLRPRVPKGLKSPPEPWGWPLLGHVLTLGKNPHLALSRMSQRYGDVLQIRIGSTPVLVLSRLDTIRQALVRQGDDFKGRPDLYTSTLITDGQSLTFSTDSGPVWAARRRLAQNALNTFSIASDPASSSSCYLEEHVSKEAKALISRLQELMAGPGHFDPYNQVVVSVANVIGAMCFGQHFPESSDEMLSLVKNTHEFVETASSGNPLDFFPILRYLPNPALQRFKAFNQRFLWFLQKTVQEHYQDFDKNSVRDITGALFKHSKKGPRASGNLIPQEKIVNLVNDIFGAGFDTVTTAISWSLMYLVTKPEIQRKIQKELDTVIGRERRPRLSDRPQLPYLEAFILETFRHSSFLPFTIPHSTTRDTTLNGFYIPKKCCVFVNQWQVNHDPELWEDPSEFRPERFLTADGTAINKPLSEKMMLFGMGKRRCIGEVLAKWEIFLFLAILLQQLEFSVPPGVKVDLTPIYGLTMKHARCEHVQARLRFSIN

Sequence of Kappa-type opioid receptor (P41145 whole entry): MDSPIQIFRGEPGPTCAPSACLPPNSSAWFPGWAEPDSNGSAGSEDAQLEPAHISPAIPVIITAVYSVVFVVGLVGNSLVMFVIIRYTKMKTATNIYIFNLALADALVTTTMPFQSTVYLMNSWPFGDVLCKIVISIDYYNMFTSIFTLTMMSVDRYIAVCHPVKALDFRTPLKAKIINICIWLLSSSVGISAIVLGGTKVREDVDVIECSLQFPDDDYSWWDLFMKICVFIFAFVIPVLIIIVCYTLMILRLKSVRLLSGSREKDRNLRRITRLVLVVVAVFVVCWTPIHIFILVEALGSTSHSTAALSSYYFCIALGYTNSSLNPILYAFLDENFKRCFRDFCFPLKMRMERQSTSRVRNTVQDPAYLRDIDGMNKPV
Sequence of C-C chemokine receptor type 5 (P51681 whole entry): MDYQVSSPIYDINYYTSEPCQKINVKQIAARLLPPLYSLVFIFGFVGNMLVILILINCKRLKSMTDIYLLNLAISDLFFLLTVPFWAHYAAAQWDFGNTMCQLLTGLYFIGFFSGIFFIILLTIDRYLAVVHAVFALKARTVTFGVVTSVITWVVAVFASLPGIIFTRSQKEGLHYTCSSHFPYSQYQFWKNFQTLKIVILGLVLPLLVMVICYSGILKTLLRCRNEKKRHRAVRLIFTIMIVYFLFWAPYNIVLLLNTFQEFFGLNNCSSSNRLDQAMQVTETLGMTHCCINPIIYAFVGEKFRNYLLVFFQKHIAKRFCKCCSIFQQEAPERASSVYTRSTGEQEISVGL
Sequence of D(1A) dopamine receptor (P21728 whole entry): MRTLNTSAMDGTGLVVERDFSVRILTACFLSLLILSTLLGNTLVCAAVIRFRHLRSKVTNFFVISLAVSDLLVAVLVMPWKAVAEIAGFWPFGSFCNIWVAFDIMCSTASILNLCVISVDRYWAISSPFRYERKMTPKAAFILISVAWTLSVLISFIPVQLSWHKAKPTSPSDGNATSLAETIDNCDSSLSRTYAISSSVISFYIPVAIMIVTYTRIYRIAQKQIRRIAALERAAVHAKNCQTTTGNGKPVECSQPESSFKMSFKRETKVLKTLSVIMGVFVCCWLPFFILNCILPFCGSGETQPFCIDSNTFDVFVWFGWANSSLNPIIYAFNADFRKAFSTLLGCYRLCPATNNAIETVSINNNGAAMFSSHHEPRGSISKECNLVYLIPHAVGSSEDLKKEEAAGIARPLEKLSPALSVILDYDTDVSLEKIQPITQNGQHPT
Sequence of Prostaglandin G/H synthase 1 (P23219 whole entry): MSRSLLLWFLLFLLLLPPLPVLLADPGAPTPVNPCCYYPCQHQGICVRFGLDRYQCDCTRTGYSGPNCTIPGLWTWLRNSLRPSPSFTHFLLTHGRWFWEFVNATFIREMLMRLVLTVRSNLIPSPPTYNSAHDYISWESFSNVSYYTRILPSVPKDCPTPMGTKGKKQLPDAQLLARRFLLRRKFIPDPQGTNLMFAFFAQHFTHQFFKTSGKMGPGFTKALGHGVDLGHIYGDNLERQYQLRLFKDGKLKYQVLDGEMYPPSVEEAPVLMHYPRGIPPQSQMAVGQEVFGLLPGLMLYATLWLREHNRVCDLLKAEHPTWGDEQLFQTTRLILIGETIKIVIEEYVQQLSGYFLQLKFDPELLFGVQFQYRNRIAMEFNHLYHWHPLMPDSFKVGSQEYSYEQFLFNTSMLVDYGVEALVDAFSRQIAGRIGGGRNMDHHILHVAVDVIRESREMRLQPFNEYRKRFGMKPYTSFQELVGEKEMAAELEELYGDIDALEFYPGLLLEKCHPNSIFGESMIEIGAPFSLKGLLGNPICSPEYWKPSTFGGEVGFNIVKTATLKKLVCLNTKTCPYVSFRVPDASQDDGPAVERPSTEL

SMILES	IC50 (Caspase-1)	IC50 (Cytochrome P450 2A6)	Ki (Cytochrome P450 2A6)	IC50 (D(1A) dopamine receptor; cho)	IC50 [1]	IC50 [2]	IC50 [3]	IC50 (Cytochrome P450 1A2)	Ki (Cytochrome P450 1A2)	IC50 (D(1A) dopamine receptor; read-out: IC50) [nM]	Ki (D(1A) dopamine receptor; read-out: Ki) [nM]
C[C@]12C=CC(=O)C=C1CC[C@H]1[C@@H]3C[C@@H](O)[C@](O)(C(=O)CO)[C@@]3(C)C[C@H](O)[C@@]12F [TRIAMCINOLONE]	Not Active	Not Active	Not Active	Not Active	Not Active	Not Active	Not Active	Not Active	Not Active		
CN1CCN(c2c(F)cc3c(=O)c(C(=O)O)cn(CCF)c3c2F)CC1 [FLEROXACIN]	Not Active	Not Active	Not Active	Not Active	Not Active	Not Active	Not Active	Not Active	Not Active		
CC(O)(P(=O)(O)O)P(=O)(O)O [ETIDRONIC ACID]	Not Active	Not Active	Not Active	Not Active	Not Active	Not Active	Not Active	Not Active	Not Active		
CCOC(=O)c1ncn2c1CN(C)C(=O)c1cc(F)ccc1-2 [FLUMAZENIL]	Not Active	Not Active	Not Active	Not Active	Not Active	Not Active	Not Active	Not Active	Not Active		
COc1ccc2c(c1OC)C(=O)O[C@@H]2[C@H]1c2c(cc3c(c2OC)OCO3)CCN1C [NOSCAPINE]	Not Active	Not Active	Not Active	Not Active	Not Active	Not Active	Not Active	Not Active	Not Active		
CCN(CC)CCNC(=O)c1ccc(N)cc1 [PROCAINAMIDE]	Not Active	Not Active	Not Active	Not Active	Not Active	Not Active	Not Active	Not Active	Not Active		
Cc1cccc(C)c1NC(=O)C1CCCCN1C (centres undefined) [MEPIVACAINE]	Not Active	Not Active	Not Active	Not Active	Not Active	Not Active	Not Active	Not Active	Not Active		
O=c1[nH]c(=O)n([C@H]2C[C@H](O)[C@@H](CO)O2)cc1F [FLOXURIDINE]	Not Active	Not Active	Not Active	Not Active	Not Active	Not Active	Not Active	Not Active	Not Active		
O=C(O)CC(O)(CC(=O)O)C(=O)O [CITRIC ACID]	Not Active	Not Active	Not Active	Not Active	Not Active	Not Active	Not Active	Not Active	Not Active		
Cc1cc(O)cc(C)c1Cl [CHLOROXYLENOL]	Not Active	Not Active	Not Active	Not Active	Not Active	Not Active	Not Active	Not Active	Not Active		
O=C(O)CCCc1cccs1	Not Active	Not Active	Not Active	Not Active	Not Active	Not Active	Not Active	Not Active	Not Active		
CCCNC(=O)NS(=O)(=O)c1ccc(Cl)cc1 [CHLORPROPAMIDE]	Not Active	Not Active	Not Active	Not Active	Not Active	Not Active	Not Active	Not Active	Not Active		
CC(=O)OC[C@H]1O[C@@H](n2ncc(=O)[nH]c2=O)[C@H](OC(C)=O)[C@@H]1OC(C)=O [AZARIBINE]	Not Active	Not Active	Not Active	Not Active	Not Active	Not Active	Not Active	Not Active	Not Active		
NCCCNCCSP(=O)(O)O [AMIFOSTINE]	Not Active	Not Active	Not Active	Not Active	Not Active	Not Active	Not Active	Not Active	Not Active		
C[C@H]1COc2c(N3CCN(C)CC3)c(F)cc3c(=O)c(C(=O)O)cn1c23.C[C@H]1COc2c(N3CCN(C)CC3)c(F)cc3c(=O)c(C(=O)O)cn1c23.O [LEVOFLOXACIN]	Not Active	Not Active	Not Active	Not Active	Not Active	Not Active	Not Active	Not Active	Not Active		
COc1ccnc(C[S+]([O-])c2nc3ccc(OC(F)F)cc3[nH]2)c1OC (centres undefined) [PANTOPRAZOLE]	Not Active	Not Active	Not Active	Not Active	Not Active	Not Active	Not Active	Not Active	Not Active		
CCCCC1=NC2(CCCC2)C(=O)N1Cc1ccc(-c2ccccc2-c2nnn[nH]2)cc1 [IRBESARTAN]	Not Active	Not Active	Not Active	Not Active	Not Active	Not Active	Not Active	Not Active	Not Active		
COC(=O)Nc1nc2cc(C(=O)c3ccc(F)cc3)ccc2[nH]1 [FLUBENDAZOLE]	Not Active	Not Active	Not Active	Not Active	Not Active	Not Active	Not Active	Not Active	Not Active		
CN(C)CCC=C1c2ccccc2CCc2ccccc21 [AMITRIPTYLINE]	Not Active	Not Active	Not Active		Not Active	Not Active	Not Active	Not Active	Not Active	355	178
Cc1ccc(C)c(OCCCC(C)(C)C(=O)O)c1 [GEMFIBROZIL]	Not Active	Not Active	Not Active	Not Active	Not Active	Not Active	Not Active	Not Active	Not Active		
CNC1=Nc2ccc(Cl)cc2C(c2ccccc2)=[N+]([O-])C1 [CHLORDIAZEPOXIDE]	Not Active	Not Active	Not Active	Not Active	Not Active	Not Active	Not Active	Not Active	Not Active		
CC(O)COC[C@H]1O[C@@H]2O[C@H]3[C@H](O)[C@@H](O)[C@@H](O[C@H]4[C@H](O)[C@@H](O)[C@@H](O[C@H]5[C@H](O)[C@@H](O)[C@@H](O[C@H]6[C@H](O)[C@@H](O)[C@@H](O[C@H]7[C@H](O)[C@@H](O)[C@@H](O[C@H]8[C@H](O)[C@@H](O)[C@@H](O[C@H]1[C@H](O)[C@H]2O)O[C@@H]8COCC(C)O)O[C@@H]7COCC(C)O)O[C@@H]6COCC(C)O)O[C@@H]5COCC(C)O)O[C@@H]4COCC(C)O)O[C@@H]3COCC(C)O (stereo partly drawn) [2-HYDROXYPROPYL-BETA-CYCLODEXTRIN]	Not Active	Not Active	Not Active	Not Active	Not Active	Not Active	Not Active	Not Active	Not Active		

— ChEMBL document CHEMBL1909046, “DrugMatrix in vitro pharmacology data”
